Measurements taken from ChEMBL document CHEMBL1828590 (J Med Chem, 2011).

Key:
[1] = Half life in human liver microsomes; format: ADME, Microsome
[2] = (§1) Half life in mouse liver microsomes; format: ADME, Microsome; conditions: liver microsomes
[3] = Half life in rat liver microsomes; format: ADME, Microsome
[4] = Half life in dog liver microsomes; format: ADME, Canis lupus familiaris, Microsome
[5] = Kinetic solubility of the compound at pH 7 with […] DMSO; format: physicochemical; conditions: buffer, read-out: Kinetic_solubility
[6] = 1-Octanol-sodium phosphate buffer distribution coefficient, log D of the compound at pH 7.4; format: physicochemical
[7] = Apparent permeability from apical to basolateral side of human Caco2 cells; format: ADME, cell-based; conditions: Caco-2
[8] = Apparent permeability from basolateral to apical side of human Caco2 cells; format: ADME, cell-based; conditions: Caco-2
COLO 205 = assay: Antiproliferative activity against human COLO205 cells after 96 hrs by celltiter 96 assay; format: functional, cell-based; conditions: COLO 205, 96 h
Histone deacetylase 1 [9] = molecular target: T1, Histone deacetylase 1 (Homo sapiens, UniProt Q13547)
Histone deacetylase 3 = Histone deacetylase 3 (Homo sapiens, UniProt O15379)
Histone deacetylase 4 = Histone deacetylase 4 (Homo sapiens, UniProt P56524)
Histone deacetylase 5 = Histone deacetylase 5 (Homo sapiens, UniProt Q9UQL6)
[10] = molecular target: T2, Protein deacetylase HDAC6 (Homo sapiens, UniProt Q9UBN7)
T2 sequence (Q9UBN7 whole entry): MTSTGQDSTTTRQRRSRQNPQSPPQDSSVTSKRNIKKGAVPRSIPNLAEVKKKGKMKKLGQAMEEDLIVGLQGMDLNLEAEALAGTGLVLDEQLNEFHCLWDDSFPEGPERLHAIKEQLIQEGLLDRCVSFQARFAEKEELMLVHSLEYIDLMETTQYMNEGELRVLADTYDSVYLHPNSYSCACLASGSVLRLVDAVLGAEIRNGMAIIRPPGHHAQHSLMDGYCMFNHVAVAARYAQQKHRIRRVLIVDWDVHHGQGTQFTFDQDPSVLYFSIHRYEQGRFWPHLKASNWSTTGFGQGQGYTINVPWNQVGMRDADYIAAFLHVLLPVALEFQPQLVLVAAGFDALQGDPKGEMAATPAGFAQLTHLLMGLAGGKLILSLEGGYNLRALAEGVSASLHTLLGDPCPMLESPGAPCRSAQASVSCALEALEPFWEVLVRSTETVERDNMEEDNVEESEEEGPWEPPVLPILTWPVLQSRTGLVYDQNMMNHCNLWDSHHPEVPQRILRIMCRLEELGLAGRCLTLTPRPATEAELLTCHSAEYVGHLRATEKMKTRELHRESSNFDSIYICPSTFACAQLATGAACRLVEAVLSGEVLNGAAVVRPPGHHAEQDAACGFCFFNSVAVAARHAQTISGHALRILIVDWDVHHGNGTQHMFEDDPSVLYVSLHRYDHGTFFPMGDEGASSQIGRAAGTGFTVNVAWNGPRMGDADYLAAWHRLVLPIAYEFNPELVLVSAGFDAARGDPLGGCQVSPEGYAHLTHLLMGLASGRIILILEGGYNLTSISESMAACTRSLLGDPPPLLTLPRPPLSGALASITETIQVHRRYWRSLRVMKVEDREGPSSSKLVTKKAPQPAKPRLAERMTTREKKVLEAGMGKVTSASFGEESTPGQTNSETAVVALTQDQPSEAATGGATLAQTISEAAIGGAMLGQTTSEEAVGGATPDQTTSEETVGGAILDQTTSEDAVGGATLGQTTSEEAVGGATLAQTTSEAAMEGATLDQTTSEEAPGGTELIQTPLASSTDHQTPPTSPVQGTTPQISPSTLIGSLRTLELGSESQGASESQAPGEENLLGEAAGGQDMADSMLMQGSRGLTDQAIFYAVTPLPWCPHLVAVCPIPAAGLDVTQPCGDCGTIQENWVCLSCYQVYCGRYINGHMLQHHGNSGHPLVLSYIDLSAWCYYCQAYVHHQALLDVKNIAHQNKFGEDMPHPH

Histone deacetylase 9 = Histone deacetylase 9 (Homo sapiens, UniProt Q9UKV0)
[11] = molecular target: T3, Polyamine deacetylase HDAC10 (Homo sapiens, UniProt Q969S8)
T3 sequence (Q969S8 whole entry): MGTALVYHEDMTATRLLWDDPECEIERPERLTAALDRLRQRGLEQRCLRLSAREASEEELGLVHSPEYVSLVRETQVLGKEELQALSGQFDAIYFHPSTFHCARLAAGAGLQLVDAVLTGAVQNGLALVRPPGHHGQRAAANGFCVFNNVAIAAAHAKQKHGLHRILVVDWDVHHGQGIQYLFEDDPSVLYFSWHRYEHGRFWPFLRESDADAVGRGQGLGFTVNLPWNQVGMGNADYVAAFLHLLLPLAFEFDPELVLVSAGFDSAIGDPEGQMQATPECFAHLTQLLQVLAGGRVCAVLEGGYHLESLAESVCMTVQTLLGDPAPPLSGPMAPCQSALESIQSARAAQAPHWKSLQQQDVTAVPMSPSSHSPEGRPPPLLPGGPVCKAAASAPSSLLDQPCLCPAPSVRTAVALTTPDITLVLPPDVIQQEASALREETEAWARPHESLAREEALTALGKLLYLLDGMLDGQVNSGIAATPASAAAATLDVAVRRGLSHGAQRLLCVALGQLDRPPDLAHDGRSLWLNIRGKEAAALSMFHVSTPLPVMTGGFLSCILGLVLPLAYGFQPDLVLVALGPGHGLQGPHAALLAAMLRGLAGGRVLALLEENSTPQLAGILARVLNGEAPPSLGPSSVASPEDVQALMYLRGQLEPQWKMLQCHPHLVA

Histone deacetylase […] = molecular target: T4, Histone deacetylase […] (Homo sapiens, UniProt Q96DB2)
T4 sequence (Q96DB2 whole entry): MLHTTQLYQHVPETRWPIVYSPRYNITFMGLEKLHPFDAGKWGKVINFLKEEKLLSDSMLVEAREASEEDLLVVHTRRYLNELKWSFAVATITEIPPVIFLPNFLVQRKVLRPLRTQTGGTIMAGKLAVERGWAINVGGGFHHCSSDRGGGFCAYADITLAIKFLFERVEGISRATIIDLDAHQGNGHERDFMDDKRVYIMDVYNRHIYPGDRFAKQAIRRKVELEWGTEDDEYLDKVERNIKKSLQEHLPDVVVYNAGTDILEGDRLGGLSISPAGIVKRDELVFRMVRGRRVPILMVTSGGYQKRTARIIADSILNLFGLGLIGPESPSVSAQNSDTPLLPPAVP

Liver = assay: as §1; format: ADME, Microsome; conditions: microsomes
Histone deacetylase 1 [12] = molecular target: T1, Histone deacetylase 1; remark: listed apart in the source
Histone deacetylase 2 = Histone deacetylase 2 (Homo sapiens, UniProt Q92769)
A2780 = assay: Antiproliferative activity against human A2780 cells after 96 hrs by celltiter 96 assay; format: functional, cell-based; conditions: A2780, 96 h
HCT-116 [13] = assay: Antiproliferative activity against human HCT116 cells after 96 hrs by celltiter 96 assay; format: functional, cell-based; conditions: HCT-116, 96 h
PC-3 = assay: Antiproliferative activity against human PC3 cells after 96 hrs by celltiter 96 assay; format: functional, cell-based; conditions: PC-3, 96 h
Histone deacetylase 8 = molecular target: T5, Histone deacetylase 8 (Homo sapiens, UniProt Q9BY41)
T5 sequence (Q9BY41 whole entry): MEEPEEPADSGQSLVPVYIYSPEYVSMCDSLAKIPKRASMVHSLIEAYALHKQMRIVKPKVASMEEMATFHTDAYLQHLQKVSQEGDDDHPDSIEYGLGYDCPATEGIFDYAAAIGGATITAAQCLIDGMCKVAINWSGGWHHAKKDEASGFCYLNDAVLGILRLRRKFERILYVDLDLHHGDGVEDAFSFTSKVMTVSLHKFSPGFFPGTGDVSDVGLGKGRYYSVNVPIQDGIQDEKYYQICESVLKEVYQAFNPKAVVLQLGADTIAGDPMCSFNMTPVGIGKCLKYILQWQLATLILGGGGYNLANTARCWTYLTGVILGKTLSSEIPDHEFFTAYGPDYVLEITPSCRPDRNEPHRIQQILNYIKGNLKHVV

[14] = Oral bioavailability in Wistar rat at 10 mg/kg; format: ADME, organism-based; conditions: in vivo
[15] = Toxicity in po dosed athymic nu/nu Harlan mouse with xenografted human HCT116 cells assessed as maximum tolerated administered qd for 21 days; format: organism-based, HCT-116; conditions: in vivo
Mus musculus [16] = assay: Toxicity in athymic nu/nu Harlan mouse xenografted with human HCT116 cells assessed as mouse survival at 50 mg/kg, po QD for 21 days measured on day 22; format: organism-based, HCT-116; design: dose 50 mg/kg, route oral; conditions: in vivo, 504 h
Mus musculus [17] = assay: Toxicity in athymic nu/nu Harlan mouse xenografted with human HCT116 cells assessed as mouse survival at 100 mg/kg, po QD for 21 days measured on day 22; format: organism-based, HCT-116; design: dose 100 mg/kg, route oral; conditions: in vivo, 504 h
Mus musculus [18] = assay: Toxicity in athymic nu/nu Harlan mouse xenografted with human HCT116 cells assessed as mouse survival at 200 mg/kg, po QD for 21 days measured on day 22; format: organism-based, HCT-116; design: dose 200 mg/kg, route oral; conditions: in vivo, 504 h
HCT-116 [19] = assay: Antitumor activity against human HCT116 cells xenografted in athymic nu/nu Harlan mouse assessed as tumor growth inhibition at 50 mg/kg, po qd for 21 days measured on day 22; format: functional; conditions: read-out: TGI
HCT-116 [20] = assay: Antitumor activity against human HCT116 cells xenografted in athymic nu/nu Harlan mouse assessed as tumor growth inhibition at 100 mg/kg, po qd for 21 days measured on day 22; format: functional; conditions: read-out: TGI
HCT-116 [21] = assay: Antitumor activity against human HCT116 cells xenografted in athymic nu/nu Harlan mouse assessed as tumor growth inhibition at 200 mg/kg, po qd for 21 days measured on day 22; format: functional; conditions: read-out: TGI
Histone deacetylase 7 = Histone deacetylase 7 (Homo sapiens, UniProt Q8WUI4)

Histone deacetylase 4, sequence (P56524 whole entry): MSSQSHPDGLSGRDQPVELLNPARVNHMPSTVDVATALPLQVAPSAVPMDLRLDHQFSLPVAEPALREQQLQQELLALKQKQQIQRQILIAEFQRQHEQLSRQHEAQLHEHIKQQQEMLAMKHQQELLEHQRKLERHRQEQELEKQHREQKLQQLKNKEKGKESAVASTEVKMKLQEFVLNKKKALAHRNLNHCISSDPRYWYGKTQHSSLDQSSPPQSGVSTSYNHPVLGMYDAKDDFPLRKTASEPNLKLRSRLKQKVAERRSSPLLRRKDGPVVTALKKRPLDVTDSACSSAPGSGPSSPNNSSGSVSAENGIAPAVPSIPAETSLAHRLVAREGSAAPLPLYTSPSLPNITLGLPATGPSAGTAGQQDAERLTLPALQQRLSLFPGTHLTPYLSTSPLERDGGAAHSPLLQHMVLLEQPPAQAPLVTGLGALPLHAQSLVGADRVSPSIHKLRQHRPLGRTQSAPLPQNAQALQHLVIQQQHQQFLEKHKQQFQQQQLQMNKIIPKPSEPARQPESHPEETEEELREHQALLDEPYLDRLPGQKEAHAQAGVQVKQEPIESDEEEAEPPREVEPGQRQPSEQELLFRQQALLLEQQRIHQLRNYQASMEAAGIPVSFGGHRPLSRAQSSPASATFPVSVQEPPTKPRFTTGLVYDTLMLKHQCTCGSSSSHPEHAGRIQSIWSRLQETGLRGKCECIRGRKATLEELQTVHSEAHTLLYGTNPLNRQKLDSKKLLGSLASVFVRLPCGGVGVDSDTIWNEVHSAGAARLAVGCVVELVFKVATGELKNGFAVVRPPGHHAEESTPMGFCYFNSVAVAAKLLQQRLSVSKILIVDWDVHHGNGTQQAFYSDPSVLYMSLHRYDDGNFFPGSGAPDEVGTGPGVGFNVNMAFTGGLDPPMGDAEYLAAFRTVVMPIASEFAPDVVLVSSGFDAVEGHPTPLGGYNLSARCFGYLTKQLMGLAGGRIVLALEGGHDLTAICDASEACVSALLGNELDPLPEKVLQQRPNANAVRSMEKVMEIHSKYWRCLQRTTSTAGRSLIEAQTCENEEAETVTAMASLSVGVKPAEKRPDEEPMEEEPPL
Histone deacetylase 3, sequence (O15379 whole entry): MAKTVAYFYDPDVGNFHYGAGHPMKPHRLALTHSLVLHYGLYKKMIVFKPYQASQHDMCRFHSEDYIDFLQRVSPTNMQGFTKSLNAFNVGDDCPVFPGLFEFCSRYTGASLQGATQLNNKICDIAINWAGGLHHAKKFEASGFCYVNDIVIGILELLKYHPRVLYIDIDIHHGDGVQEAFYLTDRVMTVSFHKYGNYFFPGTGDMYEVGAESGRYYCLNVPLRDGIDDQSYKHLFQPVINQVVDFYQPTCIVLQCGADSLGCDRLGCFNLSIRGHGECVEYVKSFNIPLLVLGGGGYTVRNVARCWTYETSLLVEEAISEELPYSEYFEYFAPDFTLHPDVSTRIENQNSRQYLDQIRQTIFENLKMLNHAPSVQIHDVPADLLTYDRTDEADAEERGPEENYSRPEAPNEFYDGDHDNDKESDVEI
T1 sequence (Q13547 whole entry): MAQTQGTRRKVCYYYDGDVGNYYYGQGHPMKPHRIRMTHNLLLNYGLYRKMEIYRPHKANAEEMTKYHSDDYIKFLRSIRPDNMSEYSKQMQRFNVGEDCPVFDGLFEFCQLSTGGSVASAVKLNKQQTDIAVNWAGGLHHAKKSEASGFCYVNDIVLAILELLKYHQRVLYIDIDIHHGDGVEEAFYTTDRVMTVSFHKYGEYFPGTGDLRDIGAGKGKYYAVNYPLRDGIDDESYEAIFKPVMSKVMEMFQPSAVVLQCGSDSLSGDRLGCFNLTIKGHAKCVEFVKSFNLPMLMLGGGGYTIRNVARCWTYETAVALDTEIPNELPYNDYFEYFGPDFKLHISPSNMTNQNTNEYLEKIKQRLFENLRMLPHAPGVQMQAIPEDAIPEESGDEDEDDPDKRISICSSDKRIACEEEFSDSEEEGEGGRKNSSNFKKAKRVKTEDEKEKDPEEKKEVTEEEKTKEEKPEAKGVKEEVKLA
Histone deacetylase 9, sequence (Q9UKV0 whole entry): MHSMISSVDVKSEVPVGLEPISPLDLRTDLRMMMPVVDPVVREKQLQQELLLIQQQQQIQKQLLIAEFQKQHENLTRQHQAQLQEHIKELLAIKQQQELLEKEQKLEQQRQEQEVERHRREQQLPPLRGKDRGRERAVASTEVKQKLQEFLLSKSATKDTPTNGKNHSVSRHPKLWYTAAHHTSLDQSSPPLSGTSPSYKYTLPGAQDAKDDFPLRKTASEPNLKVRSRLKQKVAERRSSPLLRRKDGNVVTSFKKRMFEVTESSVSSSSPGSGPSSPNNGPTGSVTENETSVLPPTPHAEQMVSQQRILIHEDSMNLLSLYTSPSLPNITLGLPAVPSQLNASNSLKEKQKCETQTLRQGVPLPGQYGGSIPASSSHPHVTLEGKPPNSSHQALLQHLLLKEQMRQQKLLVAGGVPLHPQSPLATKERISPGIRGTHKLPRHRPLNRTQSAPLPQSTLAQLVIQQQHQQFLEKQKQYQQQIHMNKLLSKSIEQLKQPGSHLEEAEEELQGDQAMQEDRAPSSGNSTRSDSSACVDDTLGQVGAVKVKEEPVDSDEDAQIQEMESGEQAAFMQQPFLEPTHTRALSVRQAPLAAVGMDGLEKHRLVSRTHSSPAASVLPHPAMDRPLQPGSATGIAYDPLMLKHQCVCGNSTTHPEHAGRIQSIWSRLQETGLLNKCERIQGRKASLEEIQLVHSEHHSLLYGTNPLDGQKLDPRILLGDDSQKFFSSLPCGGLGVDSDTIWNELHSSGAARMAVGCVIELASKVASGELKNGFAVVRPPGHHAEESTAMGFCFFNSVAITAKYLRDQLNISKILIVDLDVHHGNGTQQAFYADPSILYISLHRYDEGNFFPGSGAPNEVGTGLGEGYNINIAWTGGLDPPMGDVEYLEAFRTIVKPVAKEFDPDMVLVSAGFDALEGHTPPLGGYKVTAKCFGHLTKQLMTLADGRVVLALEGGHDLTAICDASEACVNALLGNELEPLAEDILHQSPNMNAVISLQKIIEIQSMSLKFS
Histone deacetylase 2, sequence (Q92769 whole entry): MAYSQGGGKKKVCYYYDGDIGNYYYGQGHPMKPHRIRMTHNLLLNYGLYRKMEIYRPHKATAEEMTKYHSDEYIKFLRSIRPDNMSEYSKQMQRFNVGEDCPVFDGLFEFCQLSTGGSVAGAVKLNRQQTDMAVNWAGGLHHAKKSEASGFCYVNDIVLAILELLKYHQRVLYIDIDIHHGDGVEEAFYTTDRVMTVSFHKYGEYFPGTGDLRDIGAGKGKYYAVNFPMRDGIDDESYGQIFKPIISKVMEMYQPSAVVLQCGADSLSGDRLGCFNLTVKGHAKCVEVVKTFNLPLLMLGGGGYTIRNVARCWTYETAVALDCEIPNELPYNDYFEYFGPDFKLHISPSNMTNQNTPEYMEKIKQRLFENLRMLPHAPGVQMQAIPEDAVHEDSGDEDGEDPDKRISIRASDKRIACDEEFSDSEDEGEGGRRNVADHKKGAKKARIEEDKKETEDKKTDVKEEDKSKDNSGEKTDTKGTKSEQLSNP
Histone deacetylase 5, sequence (Q9UQL6 whole entry): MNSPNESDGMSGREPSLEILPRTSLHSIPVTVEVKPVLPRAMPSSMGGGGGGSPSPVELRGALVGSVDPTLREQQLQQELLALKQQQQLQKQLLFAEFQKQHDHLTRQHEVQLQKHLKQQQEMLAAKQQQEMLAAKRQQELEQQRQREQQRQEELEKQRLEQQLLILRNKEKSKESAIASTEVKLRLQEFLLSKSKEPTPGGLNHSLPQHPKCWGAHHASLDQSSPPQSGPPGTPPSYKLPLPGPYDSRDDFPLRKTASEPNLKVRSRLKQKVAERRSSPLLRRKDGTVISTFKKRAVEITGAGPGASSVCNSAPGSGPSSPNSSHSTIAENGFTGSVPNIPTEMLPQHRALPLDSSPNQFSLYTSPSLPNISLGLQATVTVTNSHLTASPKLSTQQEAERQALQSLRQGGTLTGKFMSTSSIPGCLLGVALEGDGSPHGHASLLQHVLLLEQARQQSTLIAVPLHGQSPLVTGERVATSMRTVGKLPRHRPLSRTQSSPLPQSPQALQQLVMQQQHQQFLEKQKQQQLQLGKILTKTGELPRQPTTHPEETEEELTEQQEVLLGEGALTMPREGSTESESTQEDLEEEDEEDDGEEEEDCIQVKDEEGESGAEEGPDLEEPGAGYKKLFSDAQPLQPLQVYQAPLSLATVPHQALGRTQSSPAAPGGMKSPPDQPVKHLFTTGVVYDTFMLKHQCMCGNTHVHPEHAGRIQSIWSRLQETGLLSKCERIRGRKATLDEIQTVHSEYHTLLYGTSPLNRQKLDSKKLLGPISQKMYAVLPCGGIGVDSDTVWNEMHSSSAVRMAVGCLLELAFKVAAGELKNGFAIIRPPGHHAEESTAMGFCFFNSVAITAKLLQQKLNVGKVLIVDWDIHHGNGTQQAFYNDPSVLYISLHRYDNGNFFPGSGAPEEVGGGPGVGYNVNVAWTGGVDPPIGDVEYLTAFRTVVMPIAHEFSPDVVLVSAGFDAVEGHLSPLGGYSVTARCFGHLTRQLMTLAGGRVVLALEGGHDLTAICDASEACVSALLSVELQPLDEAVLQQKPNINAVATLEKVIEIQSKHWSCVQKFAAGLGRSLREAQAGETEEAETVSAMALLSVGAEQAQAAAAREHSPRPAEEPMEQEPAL

Row | SMILES | half-life [1] [min] | half-life [2] [min] | half-life [3] [min] | half-life [4] [min] | solubility kinetic [5] [µM] | IC50 (COLO 205) [nM] | Ki (Histone deacetylase 1 [9]) [nM] | Ki (Histone deacetylase 3) [nM] | Ki (Histone deacetylase 4) [nM] | Ki (Histone deacetylase 5) [nM] | Ki [10] [nM] | Ki (Histone deacetylase 9) [nM] | Ki [11] [nM] | Ki (Histone deacetylase […]) [nM] | IC50 (Histone deacetylase 1 [12]) [nM] | Ki (Histone deacetylase 2) [nM] | IC50 (A2780) [nM] | IC50 (HCT-116 [13]) [nM] | IC50 (PC-3) [nM] | Ki (Histone deacetylase 8) [nM] | other results
1 | Cl.O=C(/C=C/c1ccc2c(c1)nc(CCc1ccccc1)n2CCN1CCCC1)NO | 60 | 5 | 4.3 | 18 | > 200 |  |  |  |  |  |  |  |  |  |  |  |  |  |  |  | logD ([6]; 1-octanol/sodium phosphate buffer, read-out: logD): 2.1; Papp A→B [7]: 3.01 ×10⁻⁶ cm/s; Papp B→A [8]: 27.7 ×10⁻⁶ cm/s
2 | O=C(/C=C/c1ccc2c(c1)nc(CCc1ccccc1)n2CCN1CCCCC1)NO | 90 |  |  |  |  | 87 | 12 | 11 | 8.7 | 18 | 27 | 24 | 23 | 14 | 23 | 39 |  |  |  |  | t1/2 (Liver): 35 min
3 | CCCCCCc1nc2cc(/C=C/C(=O)NO)ccc2n1CCNCC |  |  |  |  |  | 190 | 11 | 13 | 6.2 | 6.8 | 282 | 14 | 28 | 13 | 20 | 18 | 240 | 230 | 210 | 54 | bioavailability [14]: 1.4%; MTD at 504 h [15]: 200 mg/kg
4 | CN(C)CC(C)(C)Cn1c(CCc2ccccc2)nc2cc(/C=C/C(=O)NO)ccc21 | 60 |  |  |  |  | 110 | 15 | 11 | 10 | 16 | 23 | 21 | 23 | 16 | 42 | 39 |  |  |  |  | t1/2 (Liver): 17 min
5 | O=C(/C=C/c1ccc2c(c1)nc(CCc1ccccc1)n2CCN1CCCC1)NO | ≥ 30 | 5 | 4.3 | 18 | > 200 | 130 |  | 12 | 8.5 |  | 20 |  |  |  |  |  |  | 190 |  | 95 | logD ([6]; octanol/water): 2.1; Papp A→B [7]: 3.01 ×10⁻⁶ cm/s; Papp B→A [8]: 27.7 ×10⁻⁶ cm/s
6 | CCCCCCc1nc2cc(/C=C/C(=O)NO)ccc2n1CCNCC.Cl.Cl | 51 | 1.6 | 1.1 | 48 | > 200 |  |  |  |  |  |  |  |  |  |  |  |  |  |  |  | Papp A→B [7]: 0.97 ×10⁻⁶ cm/s; Papp B→A [8]: 10.5 ×10⁻⁶ cm/s; Activity (Mus musculus [16]): Non-toxic; Activity (Mus musculus [17]): Non-toxic; Activity (Mus musculus [18]): Non-toxic; inhibition in vivo at 50 mg/kg (HCT-116 [19]): -9%; inhibition in vivo at 100 mg/kg (HCT-116 [20]): -7%; inhibition in vivo at 200 mg/kg (HCT-116 [21]): 41%
7 | CCCCc1nc2cc(/C=C/C(=O)NO)ccc2n1CCNC(C)C |  |  |  |  |  | 470 | 26 | 27 | 11 | 11 | 225 | 30 | 34 | 18 | 42 | 33 | 380 | 340 | 230 | 78 | bioavailability [14]: 9%; MTD at 504 h [15]: 200 mg/kg
8 | CCCCCCc1nc2cc(/C=C/C(=O)NO)ccc2n1CCNC(C)C |  |  |  |  |  | 170 | 20 | 15 | 6.6 | 6.6 | 348 | 16 | 29 | 14 | 36 | 18 | 200 | 210 | 170 | 57 | Ki (Histone deacetylase 7): 41 nM
9 | CCCCCc1nc2cc(/C=C/C(=O)NO)ccc2n1CCNC(C)C |  |  |  |  |  | 280 | 10 | 10 | 3.6 | 5.6 | 227 | 4.4 | 19 | 4.2 | 30 | 14 | 230 | 260 | 120 | 94 | 
